Where two headings read alike, the source gives them in different places.
Key:
[1] = system: MDA MB 435 mammary carcinoma cells; experiment: anti-proliferative effect on tumour cell line, MTT method; type: cell-based; details: for IC50: Homo sapiens; for inhibiting (anti-proliferative) activity compared with taxol, in words: MDA MB 435 cells, MTT, comparison with taxol
Method: The addition of the substance in several concentrations is carried out on day 1. The anti-proliferative effect is determined on day 3 using the MTT method. The IC50 values are determined therefrom.

tubulin = experiment: photometric measurement of polymerisation of tubulin and depolymerisation of microtubules (350 nm); type: biochemical, bovine; details: photometry, compared with taxol/control; for effect on polymerisation of tubulin: 37° C., tubulin 2 mg protein/ml; for stabilisation of microtubules (effect on depolymerisation): depolymerisation initiated by reducing temperature to 15° C.
Method: Bovine brains (each 330 g) are removed from freshly opened cows' heads and are transported in ice-cooled PM4-M buffer. Each brain is freed of the meninges and also of any thrombi and is homogenised with sufficient PM4M buffer in a cooling chamber. The homogenised material from 2 bovine brains is made up to a total volume of 1.0 liter with a total of 500 ml of buffer and is subjected to a first centrifugation (GSA rotor, 15 minutes, 4° C., 6500 g). The supernatant is freed of the sebaceous skin on the surface, filtered over 4 layers of thin muslin, transferred into counter-balanced centrifuge tubes (420 ml) and centrifuged again (Ti 45 rotor, 96000 g, 75 minutes, 4° C.). The supernatant is removed by pipette through the pellet and filtered over 6 layers of thin muslin, and a 50 mM GTP solution in 0.001M bicarbonate/PBS is added to obtain a final concentration of 1 mM. A first polymerisation is carried out in counter-balanced centrifuge tubes for 45 minutes in a water bath warmed to 37° C. The microtubules that have formed are removed by centrifugation (Ti 45 rotor, 27° C., 96000 g, 60 minutes), the supernatant is carefully removed by pipette and the very soft, opalescent pellet is carefully separated from the wall with a spatula. 40 ml of cold PM buffer are then added to the pellet, followed by homogenisation using a small glass mortar and incubation overnight (from 12 to 16 hours) on ice in counter-balanced centrifuge tubes in a cooling chamber. The depolymerisation product is removed by centrifugation in the Ti 60 rotor (4° C.; 96000 g, 60 minutes) and the supernatant is diluted with PM8-M buffer to 1:1, incubated in counter-balanced centrifuge tubes at 37° C. for 45 minutes and centrifuged again (Ti 45 rotor, 27° C., 96000 g, 60 minutes). The supernatant is carefully removed by pipette and the very soft opalescent pellet is taken up in 20 ml of cold PM buffer, homogenised carefully using a small glass mortar and incubated on ice for 30 minutes. The renewed centrifugation (Ti 60 rotor, 4° C., 96000 g, 60 minutes) gives tubulin, the protein content of which is determined according to Pearce or according to a photometric measurement at 280 nm. In the protein determination, dilutions of isolated material to PM buffer of 1:10, 1:20 and 1:40 are used. The PM buffer has own extinction and is deducted as a zero value from the determined protein content. The isolated material is diluted with PM buffer to the intended protein concentration (2 mg/ml).
The measurement of the polymerisation of tubulin and the depolymerisation of microtubules is carried out by photometry. Before the measurement, the tubulin prepared in accordance with Application Example 1 is thawed and degassed for 15 minutes. The photometer is set to a wavelength of 350 nm. 3 μl of solvent/sample, 6 μl of GTP ([…] final.) and 291 μl of tubulin (2 mg protein/ml) are pipetted into the dry and cleaned dishes (10 mm). The sample is carefully stirred (without causing air bubbles), immediately placed in dish carriages and the measuring operation is started at 37° C. Once the polymerisation maximum has been reached (solvent control and taxol 1E-5 mol/l after 20 minutes), the depolymerisation is initiated by reducing the temperature to 15° C. The measuring operation is stopped at the end of the depolymerisation and the course of the change in absorption is represented in graph form as a function of time and temperature (see FIG. 1).

[2] = MDA MB 435 mammary carcinoma cells, 5000 cells/well, substance added day 1, determined day 3, MTT, read-out: MDA-MB 435 cells IC50

IC50 [1, 2]	Structure (SMILES)	inhibiting (anti-proliferative) activity compared with taxol, in words [1]	effect on polymerisation of tubulin (tubulin)	stabilisation of microtubules (effect on depolymerisation) (tubulin)	IC50 ([1]; MDA-MB-435, read-out: MDA-MB 435 cells IC50)
2 nM	COC(=O)N[C@@H](c1ccncc1)[C@@H](O)C(=O)O[C@H]1C[C@@]2(O)[C@@H](OC(=O)c3ccccc3)[C@@H]3[C@]4(OC(C)=O)CO[C@@H]4C[C@H](O)[C@@]3(C)C(=O)[C@H](OC(C)=O)C(=C1C)C2(C)C [Compound 1, 3'-desphenyl-3'-(4-pyridyl)-3'-N-debenzoyl-3'-N-methoxycarbonyl-taxol]	activity similar to that of taxol	inhibits the polymerisation	stabilises the microtubules that have formed distinctly better than taxol	–
0.8 nM	COC(=O)N[C@@H](c1ccncc1)[C@@H](O)C(=O)O[C@H]1C[C@@]2(O)[C@@H](OC(=O)c3ccccc3)[C@@H]3[C@]4(OC(C)=O)CO[C@@H]4C[C@@H](O)[C@@]3(C)C(=O)[C@H](OC(C)=O)C(=C1C)C2(C)C [Compound 2, 3'-desphenyl-3'-(4-pyridyl)-3'-N-debenzoyl-3'-N-methoxycarbonyl-7-epi-taxol]	significantly improved inhibiting activity compared with taxol	much more pronounced acceleration of the polymerisation of tubulin	stabilises the microtubules that have formed very much better than taxol	–
8000 nM	COC(=O)N[C@@H](c1ccncc1)[C@@H](O)C(=O)O[C@H]1C[C@@]2(O)[C@@H](O)[C@@H]3[C@]4(OC(C)=O)CO[C@@H]4C[C@H](O)[C@@]3(C)C(=O)[C@H](OC(C)=O)C(=C1C)C2(C)C [Compound 3, 3'-desphenyl-3'-(4-pyridyl)-2,3'-N-bisdebenzoyl-3'-N-methoxycarbonyl-taxol]	–	much more pronounced acceleration of the polymerisation of tubulin	stabilises the microtubules that have formed better than taxol	–
60 nM	COC(=O)N[C@@H](c1ccncc1)[C@@H](O)C(=O)O[C@H]1C[C@@]2(O)[C@@H](OC(=O)c3ccccc3)[C@@H]3[C@]4(OC(C)=O)CO[C@@H]4C[C@H](O)[C@@]3(C)C(=O)[C@H](O)C(=C1C)C2(C)C [Compound 4, 3'-Desphenyl-3'-(4-pyridyl)-3'-N-debenzoyl-3'-N-methoxycarbonyl-10-desacetyl-taxol]	–	does not differ from taxol in respect of the polymerisation behaviour of tubulin	stabilise the microtubules that have formed substantially better than taxol	–
–	CC(=O)O[C@H]1C(=O)[C@@]2(C)[C@H]([C@H](OC(=O)c3ccccc3)[C@]3(O)C[C@H](OC(=O)[C@H](O)[C@@H](NC(=O)c4ccccc4)c4ccccc4)C(C)=C1C3(C)C)[C@]1(OC(C)=O)CO[C@@H]1C[C@@H]2O [Taxol, reference compound]	–	speeds up the polymerisation of tubulin in comparison with the control	inhibits depolymerisation	3 nM
